Patent US20100015128A1, “GRP78 as a Predictor of Responsiveness to Therapeutic Agents” (UNIVERSITY OF SOUTHERN CALIFORNIA, priority 2006, published 2010)
d = 2'-deoxy (DNA); r = 2'-OH (RNA)

Legend:
[1] = system: BIK; test: BIK protein induction under stress conditions (Western blot); format: cell-based, human
Description: (§1) Cell lines and culture conditions. The estrogen-dependent cell line MCF-7/BUS was provided by A. M. Soto (Tufts University, Medford, Mass.) and has been described (Soto et al., Environ. Health Perspect. 103:113-22 (1995)). The human embryonic kidney 293T cells and MCF-7/BUS cells were maintained in DMEM supplemented with 10% fetal bovine serum. Estrogen starvation of MCF-7/BUS cells was done as described (Hur et al., PNAS 101:2351-6 (2004)). Briefly, the cells were washed thrice with phenol red-free DMEM and incubated in washing medium at 37° C. for 60 minutes. The MCF-7/BUS cells were then cultured in phenol red-free DMEM supplemented with 5% charcoal/dextran-stripped fetal bovine serum for 24 to 72 hours as indicated. For etoposide treatment, the cells were incubated with 50 μmol/L etoposide for 6 hours and cultured for another 24 hours before harvest.
(§2) Western blots and quantitation. The Western blots were done as described (Lee, Methods 35:373-81 (2005)). The primary antibodies were goat anti-BIK (N-19, Santa Cruz Biotechnology, Santa Cruz, Calif.), rat anti-Grp78 (76-E6, Santa Cruz Biotechnology), rat anti-GRP94, rabbit anti-calnexin, rabbit anti-calreticulin (Stressgen, Ann Arbor, Mich.), mouse anti-Flag M2, mouse anti-poly(ADP-ribose) polymerase (PARP; F-2, Santa Cruz Biotechnology, Santa Cruz, Calif.), and mouse anti-h-actin (Sigma-Aldrich, St. Louis, Mo.). Anti-h-actin was diluted at 1:2,000; anti-BIK at 1:500; and other antibodies at 1:1,000. Respective horseradish peroxidase-conjugated secondary antibodies (Santa Cruz Biotechnology, Santa Cruz, Calif.) at 1:1,000 dilution were used. The Western blots were quantitated by Fluor-S® MultiImager (Bio-Rad, Hercules, Calif.) according to the manufacturer's instructions. All quantitations were normalized against h-actin.

[2] = biological target: Flag-tagged BIK-b5TM (UniProt Q13323); test: cell-based or functional assay
[3] = biological target: endogenous BIK (human) (UniProt Q13323); test: cell-based or functional assay
[4] = system: BIK; test: siRNA knockdown in MCF-7/BUS cells, Western blot for BIK; format: cell-based, human; settings: estrogen starvation, vs control siRNA
Description: as §2
(§3) Small interfering RNA. The siRNA against Grp78 is 5′-gagcgcauugauacuagadTdT-3′ (SEQ ID NO:1) as described (Tsutsumi et al., Oncogene 25:1018-29 (2006)). The siRNA against Bik is 5′-[…]-3′ (SEQ ID NO:2) (Hur et al., PNAS 101:2351-6 (2004)). The control siRNA is Silencer Negative Control #3 siRNA (Ambion, Foster City, Calif.) composed of a 19-bp scrambled sequence without significant homology to any known gene sequences from mouse, rat, or human. […]

[5] = system: PARP; test: PARP cleavage by Western blot in estrogen-starved cells; format: cell-based, human; settings: MCF-7/BUS cells, estrogen starvation; for PARP cleavage: vs control siRNA
Description: In FIG. 8A, cell lysates from MCF-7/BUS cells transfected with siGrp78 oligomers or control siRNA (siCtrl) for 24 hours and subsequently cultured in regular or estrogen-free medium (ES) for 24 hours were subjected to SDS-PAGE and Western blotting to probe for levels of GRP78, GRP94 and β-actin. In FIG. 8B, MCF-7/BUS cells were cultured either in regular or in estrogen-free (ES) medium for 24 hours after transfection of siGrp78 or siCtrl as indicated. The percent of apoptotic cells was assessed by mitochondrial membrane potential staining. The standard errors are indicated. In FIG. 8C, MCF-7/BUS cells were transfected with control siRNA, siGrp78, or siBik, alone or in combination as indicated for 24 hours and then cultured in ES medium for 24 hours. The total amount of siRNA in each condition was adjusted to be the same by addition of siCtrl. Cell lysates were collected and subjected to SDS-PAGE and probed for levels of GRP78, BIK and β-actin by Western blotting. In FIG. 8D, cell lysates from FIG. 8C were subjected to SDS-PAGE and Western blotted with anti-PARP antibody. The Western signal of full-length PARP and apoptosis-signature fragment were quantitated by Fluor-S™ MultiImager (Bio-Rad, Hercules, Calif.). The relative PARP cleavages are shown with the PARP cleavage in cells transfected with control siRNA set as 1. Columns in FIGS. 8B and 8D represent the mean from three or two experiments, respectively. Standard error: * p<0.05, ** p<0.01.
Cell lines and culture conditions. The estrogen-dependent cell line MCF-7/BUS was provided by A. M. Soto (Tufts University, Medford, Mass.) and has been described (Soto et al., Environ. Health Perspect. 103:113-22 (1995)). The human embryonic kidney 293T cells and MCF-7/BUS cells were maintained in DMEM supplemented with 10% fetal bovine serum. […]
Western blots and quantitation. […] The Western blots were quantitated by Fluor-S® MultiImager (Bio-Rad, Hercules, Calif.) according to the manufacturer's instructions. All quantitations were normalized against h-actin.

[6] = system: MCF-7/BUS cells; test: Mitochondrial membrane potential staining (apoptosis); format: cell-based, human
Description: as §1
For construction of the adenovirus expression vectors, either GFP or a His-tagged full-length hamster Grp78 cDNA was subcloned into an adenoviral vector and its expression was driven by the cytomegalovirus promoter. […] For mitochondrial membrane potential staining, because GFP interferes with the green fluorescence of this assay, the adenovirus empty vector was used as the negative control. […]
Cell death and apoptotic assays. […] The cell cultures were then washed with PBS and examined under a fluorescence microscope. […]

[7] = system: GRP78; test: siRNA knockdown in MCF-7/BUS cells, Western blot for Grp78; format: cell-based, human; settings: transient transfection, vs control siRNA
Description: as §2, §3

[8] = system: GRP94; test: siRNA knockdown in MCF-7/BUS cells, Western blot for GRP94; format: cell-based, human; settings: transient transfection
Description: as §2, §3

[9] = biological target: T1, calnexin (human, UniProt P27824 21-592); test: co-immunoprecipitation with anti-BIK from 293T lysate, Western blot
T1 sequence (looked up): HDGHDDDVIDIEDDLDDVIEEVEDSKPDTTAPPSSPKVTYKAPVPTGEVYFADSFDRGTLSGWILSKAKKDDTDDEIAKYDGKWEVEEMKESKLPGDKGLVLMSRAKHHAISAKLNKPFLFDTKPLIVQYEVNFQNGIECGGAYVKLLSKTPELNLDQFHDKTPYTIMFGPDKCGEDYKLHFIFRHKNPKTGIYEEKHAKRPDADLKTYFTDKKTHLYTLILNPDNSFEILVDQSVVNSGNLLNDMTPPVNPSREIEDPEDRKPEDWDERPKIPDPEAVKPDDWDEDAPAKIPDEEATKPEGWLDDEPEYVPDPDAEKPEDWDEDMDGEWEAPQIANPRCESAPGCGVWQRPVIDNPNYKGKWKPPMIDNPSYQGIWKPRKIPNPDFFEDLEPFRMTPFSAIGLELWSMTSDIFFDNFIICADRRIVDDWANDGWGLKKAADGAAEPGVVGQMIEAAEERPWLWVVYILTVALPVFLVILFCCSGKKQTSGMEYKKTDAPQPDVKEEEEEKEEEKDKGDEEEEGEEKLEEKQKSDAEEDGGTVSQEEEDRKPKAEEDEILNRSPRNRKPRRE
Description: (§4) FIGS. 5A to 5D show selective association of endogenous BIK with GRP78. In FIG. 5A, 293T cells were either non-treated or treated with 50 μM etoposide (Etop) for 6 hours and were harvested 24 hours later. MCF-7/BUS cells were cultured either in regular DMEM or in estrogen-free DMEM for 48 hours. Western blots of total protein lysates from these cells were performed with antibodies against BIK and β-actin. In FIG. 5B, cell lysates prepared from control and Etop-treated 293T cells were immunoprecipitated with anti-BIK or normal IgG The immunoprecipitates were applied in parallel with input lysates to SDS-PAGE and Western blotted with antibodies against GRP78, GRP94, calnexin, calreticulin and BIK. […] In FIG. 5D, lysates of 293T cells were incubated with GST-GRP78, GST-BIK, or GST linked beads. The bound proteins were resolved by SDS-PAGE and probed for GRP78 or BIK by Western blotting.
(§5) Communoprecipitation assays. The coimmunoprecipitation assays were done as described (Reddy et al., J. Biol. Chem. 278:20915-24 (2003)). Briefly, 500 μg of total protein extract from each sample were pretreated with protein G-Sepharose beads (Upstate, Chicago, Ill.), followed by incubation with 5 Ag of goat anti-BIK antibody (N-19, Santa Cruz Biotechnology, Santa Cruz, Calif.) or mouse anti-Flag M2 antibody (Sigma-Aldrich, St. Louis, Mo.). For negative controls, the respective goat or mouse immunoglobulin G (IgG; Santa Cruz Biotechnology, Santa Cruz, Calif.) was used.

[10] = biological target: T2, calreticulin (human, UniProt P27797 18-417); test: as above
T2 sequence (looked up): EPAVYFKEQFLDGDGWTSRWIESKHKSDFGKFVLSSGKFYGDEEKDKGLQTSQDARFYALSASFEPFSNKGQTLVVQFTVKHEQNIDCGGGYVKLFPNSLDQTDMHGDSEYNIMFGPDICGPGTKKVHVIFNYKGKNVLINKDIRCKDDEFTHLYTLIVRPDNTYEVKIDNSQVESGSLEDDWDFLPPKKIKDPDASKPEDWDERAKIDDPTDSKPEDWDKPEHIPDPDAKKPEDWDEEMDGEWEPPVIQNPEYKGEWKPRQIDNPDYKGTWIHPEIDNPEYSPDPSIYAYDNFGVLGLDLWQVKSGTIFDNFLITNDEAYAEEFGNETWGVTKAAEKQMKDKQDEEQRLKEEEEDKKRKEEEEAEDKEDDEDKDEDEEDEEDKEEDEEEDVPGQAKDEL
Description: as §4, §5

[11] = biological target: GRP94 (human, UniProt P14625 22-803); test: as above
Description: as §4, §5

[12] = biological target: T3, GST protein (UniProt P08515 1-218 = GST); test: GST pull-down from 293T total cell extract, Western blot
T3 construct: Negative control in the pull-down assays; also called Glutathione S-transferase
Description: as §4
Glutathione S-transferase pull-down assays. Glutathione S-transferase (GST)-Grp78 and GST-BIK were constructed by subcloning full-length hamster Grp78 cDNA and human BIK into the BamH1/XhoI and BamH1/Sal1 sites of pGEX 4T1, respectively (Pharmacia Biotech, Piscataway, N.J.). Conditions for the GST pull-down assays have been described (Wu and Lee, Nucleic Acids Res. 26:4837-45 (1998)) with the following modifications. […]

T3 sequence (P08515 whole entry): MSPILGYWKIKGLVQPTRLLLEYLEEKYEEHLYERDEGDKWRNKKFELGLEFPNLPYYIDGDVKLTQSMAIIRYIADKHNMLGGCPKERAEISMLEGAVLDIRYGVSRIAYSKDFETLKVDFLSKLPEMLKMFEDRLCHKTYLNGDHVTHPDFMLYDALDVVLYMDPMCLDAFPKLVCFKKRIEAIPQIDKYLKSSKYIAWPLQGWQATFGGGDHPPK
GRP94 (human, UniProt P14625 22-803), sequence (P14625 22-803 limits assumed): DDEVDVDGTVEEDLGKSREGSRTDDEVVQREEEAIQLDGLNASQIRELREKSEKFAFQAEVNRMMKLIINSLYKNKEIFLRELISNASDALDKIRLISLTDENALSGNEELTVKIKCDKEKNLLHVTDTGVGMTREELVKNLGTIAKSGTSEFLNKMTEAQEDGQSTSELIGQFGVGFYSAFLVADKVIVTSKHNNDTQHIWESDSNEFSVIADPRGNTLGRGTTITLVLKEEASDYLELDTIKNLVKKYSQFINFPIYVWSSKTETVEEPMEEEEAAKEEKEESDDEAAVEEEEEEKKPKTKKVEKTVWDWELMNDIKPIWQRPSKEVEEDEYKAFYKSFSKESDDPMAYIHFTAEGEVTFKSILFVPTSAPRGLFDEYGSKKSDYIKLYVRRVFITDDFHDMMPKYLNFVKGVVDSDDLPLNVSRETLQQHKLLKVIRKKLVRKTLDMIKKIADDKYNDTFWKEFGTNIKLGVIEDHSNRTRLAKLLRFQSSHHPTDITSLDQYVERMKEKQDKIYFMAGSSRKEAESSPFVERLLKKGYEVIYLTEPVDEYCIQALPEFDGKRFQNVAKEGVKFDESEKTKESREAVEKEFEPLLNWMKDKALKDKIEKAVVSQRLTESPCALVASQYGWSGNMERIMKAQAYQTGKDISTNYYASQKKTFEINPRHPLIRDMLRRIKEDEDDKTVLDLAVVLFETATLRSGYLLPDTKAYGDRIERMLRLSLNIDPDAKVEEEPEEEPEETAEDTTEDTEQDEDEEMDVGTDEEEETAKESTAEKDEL

COc1cc([C@@H]2c3cc4c(cc3[C@@H](O[C@@H]3O[C@@H]5CO[C@@H](C)O[C@H]5[C@H](O)[C@H]3O)[C@H]3COC(=O)[C@H]23)OCO4)cc(OC)c1O [etoposide]
level of BIK protein ([1]; 293T cells, 50 μmol/L etoposide 6 hours, harvested 24 hours later): substantially elevated

His-tagged Grp78
fold decrease in apoptosis (mitochondrial membrane potential staining) in transfected 293T cells [2]: 3 fold

His-tagged full-length hamster Grp78 (Ad-Grp78) (from UniProt P07823 19-654)
decrease in BAX activation by estrogen starvation (FACS with BAX conformation specific antibody) in MCF-7/BUS cells [3]: 48%

siRNA against Bik: siRNA 5′-aagaccccucuccagagacau-3′ (SEQ ID NO:2) (AAGACCCCUCUCCAGAGACAU; RNA, backbone not given here)
expression of BIK protein [4]: substantially reduced
enhanced PARP cleavage mediated by knockdown of Grp78 ([5]; BIK knockdown combined with Grp78 knockdown): substantially reduced
PARP cleavage [5]: decreased

siRNA against Grp78: siRNA 5′-gagcgcauugauacuagadTdT-3′ (SEQ ID NO:1) (guide GAGCGCAUUGAUACUAGATT; sugars from the 5' end r18 d2, backbone not given here)
effect on mitochondrial membrane potential ([6]; MCF-7/BUS cells in normal culture medium): little effect
apoptosis ([6]; MCF-7/BUS cells, estrogen starvation 24 hours, vs control siRNA): marked increase
level of Grp78 protein [7]: substantially reduced
expression of GRP94 [8]: no effect
PARP cleavage [5]: increased

tunicamycin
induction of BIK by ER stress inducers ([1]; human cells): do not induce

B1: endogenous BIK (other, human, UniProt Q13323 1-160, looked up)
chain: MSEVRPLSRDILMETLLYEQLLEPPTMEVLGMTDSEEDLDPMEDFDSLECMEGSDALALRLACIGDEMDVSLRAPRLAQLSEVAMHSLGLAFIYDQTEDIRDVLRSFMDGFTTLKENIMRFWRSPNPGSWVSCEQVLLALLLLLALLLPLLSGGLHLLLK
notes: Endogenous protein from total cell extract of the human cell line 293T, untreated or etoposide-treated; also called BIK protein
binding result [9]: no binding
binding result [10]: no binding
binding result [11]: no binding
binding result [12]: no binding
